What all share (format): cell-based
Test [1] has as its target T1, GLP-1 receptor (Homo sapiens, UniProt P43220). Kind of test: HitHunter cAMP assay, GLP-1 receptor. As to conditions: for Emax: read-out: Emax GLP-1R.
In test [2] the target is T1, GLP-1 receptor. Kind of test: PathHunter β-arrestin assay, GLP-1 receptor. More on the design: host or cells: PathHunter CHO-K1 GLP1R β-Arrestin Cell Line.
In test [3] the target is T2, GIP receptor (Homo sapiens, UniProt P48546).
T2 sequence (P48546 22-466): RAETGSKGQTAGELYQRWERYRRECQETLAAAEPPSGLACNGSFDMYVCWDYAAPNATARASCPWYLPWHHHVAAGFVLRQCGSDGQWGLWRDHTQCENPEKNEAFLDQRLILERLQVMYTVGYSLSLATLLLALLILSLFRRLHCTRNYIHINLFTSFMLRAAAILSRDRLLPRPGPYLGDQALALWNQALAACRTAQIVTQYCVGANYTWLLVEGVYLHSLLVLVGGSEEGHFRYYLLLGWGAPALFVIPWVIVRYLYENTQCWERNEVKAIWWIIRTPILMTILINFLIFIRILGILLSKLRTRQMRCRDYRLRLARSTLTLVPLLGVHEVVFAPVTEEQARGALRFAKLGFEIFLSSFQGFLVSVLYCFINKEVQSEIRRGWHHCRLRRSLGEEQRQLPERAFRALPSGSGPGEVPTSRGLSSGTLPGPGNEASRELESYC
Kind of test: HitHunter cAMP assay, GIP receptor. The note with it: for Emax: read-out: Emax GIP-1R.

Test [4] concerns the target T2, GIP receptor. The test can be described thus: PathHunter β-arrestin assay, GIP receptor. Also noted: host or cells: PathHunter CHO-K1 GIPR β-Arrestin Cell Line.
[5] abbreviates: CHO cells stably expressing human GLP-1 receptor, cAMP accumulation, 30 min, read-out: EC50 GLP-1R.
The mark [6] stands for this setting: CHO cells, cAMP, normalized to maximum signal from GLP-1 (high) and DMSO (low).
The mark [7] stands for this setting: β-arrestin-2 recruitment, PathHunter CHO-K1 GLP1R β-Arrestin Cell Line, 90 min at 37° C., normalized to GLP-1, read-out: GLP-1R β Arrestin EC50.
The mark [8] stands for this setting: CHO cells stably expressing GIP receptor, cAMP accumulation, 30 min, read-out: EC50 GIP-1R.
The mark [9] stands for this setting: CHO cells, cAMP, normalized to maximum signal from GIP (high) and DMSO (low).
Setting [10] is: β-arrestin-2 recruitment, PathHunter CHO-K1 GIPR β-Arrestin Cell Line, 90 min at 37° C., normalized to GIP, read-out: GIPR β Arrestin EC50.

pEC50: −log10 of the molar value. Read-outs that look alike come from different tables or passages of the source. *1 amine or outer side, *2 acyl side, *3 side chain or, on linkers, in order; H or OH if unused. Where a SMILES comes first, the peptide text is derived from it. Side-chain parts run from the residue outwards. [ ]: non-standard residue; d: D form. The star is where a group is joined. cPentCO(1-(4-ClPh)) = O=C(C1(c2ccc(Cl)cc2)CCCC1)*; C20 diacid = O=C(O)CCCCCCCCCCCCCCCCCCC(=O)*; αMePhe(2-F) = C[C@](N)(Cc1ccccc1F)C(=O)O; β2hAla(2S) = C[C@@H](CN[*:1])C(=O)[*:2]; γGlu = O=C(O)[C@H](CCC(=O)[*:2])N[*:1]; X48 = CC(C)[C@H](C(=O)*)c1ccc(Cl)cc1; X62 = O=C(C1(c2cccc(Cl)c2)CCCC1)*; X18 = O=C(C1(c2cccc(F)c2)CCCC1)*; X46 = O=C(C1(c2ccccc2)CCOCC1)*; AEEA = NCCOCCOCC(=O)O; Aib = CC(C)(N)C(=O)O; βAla = NCCC(=O)O

T1 sequence (P43220 24-463): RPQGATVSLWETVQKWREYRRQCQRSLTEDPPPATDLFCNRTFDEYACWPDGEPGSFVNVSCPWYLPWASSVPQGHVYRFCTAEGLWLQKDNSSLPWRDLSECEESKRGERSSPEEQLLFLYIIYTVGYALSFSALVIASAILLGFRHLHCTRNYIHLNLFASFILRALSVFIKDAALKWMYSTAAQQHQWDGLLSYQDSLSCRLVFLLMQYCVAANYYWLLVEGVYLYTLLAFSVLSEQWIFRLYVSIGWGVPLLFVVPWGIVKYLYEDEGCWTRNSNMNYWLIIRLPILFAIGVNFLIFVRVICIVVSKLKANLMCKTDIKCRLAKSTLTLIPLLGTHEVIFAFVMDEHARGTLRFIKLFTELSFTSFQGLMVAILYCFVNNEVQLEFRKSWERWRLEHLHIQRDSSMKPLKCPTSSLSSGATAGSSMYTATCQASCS

Consider `CC[C@H](C)[C@H](NC(=O)[C@H](CC(C)C)NC(=O)[C@H](Cc1c[nH]c2ccccc12)NC(=O)[C@H](CCC(N)=O)NC(=O)[C@@H](NC(=O)[C@H](Cc1ccccc1)NC(=O)[C@H](C)NC(=O)[C@H](CCCCNC(=O)COCCOCCNC(=O)COCCOCCNC(=O)CC[C@H](NC(=O)CCCCCCCCCCCCCCCCCCC(=O)O)C(=O)O)NC(=O)[C@H](CCC(N)=O)NC(=O)[C@H](C)NC(=O)[C@@H](NC(=O)[C@H](CCCCN)NC(=O)[C@H](CC(=O)O)NC(=O)[C@H](CC(C)C)NC(=O)C(C)(C)NC(=O)[C@@H](NC(=O)[C@H](CO)NC(=O)[C@H](Cc1ccc(O)cc1)NC(=O)[C@H](CC(=O)O)NC(=O)[C@H](CO)NC(=O)[C@@H](NC(=O)[C@H](Cc1ccccc1)NC(=O)[C@@H](NC(=O)CNC(=O)[C@H](CCC(=O)O)NC(=O)CCNC(=O)[C@H](c1ccc(Cl)cc1)C(C)C)[C@@H](C)O)[C@@H](C)O)[C@@H](C)CC)[C@@H](C)CC)C(C)C)C(=O)N[C@@H](C)C(=O)NCC(=O)NCC(=O)N1CCC[C@H]1C(=O)N[C@@H](CO)C(=O)N[C@@H](CO)C(=O)NCC(=O)N[C@@H](C)C(=O)N1CCC[C@H]1C(=O)N1CCC[C@H]1C(=O)N1CCC[C@H]1C(=O)N[C@@H](CO)C(N)=O` [Compound 177] ({X48-βAla}-EGTFTSDYSI[Aib]LDKIAQK([AEEA-AEEA-γGlu-C20 diacid])AFVQWLIAGGPSSGAPPPS-NH2), for which the pEC50 at GLP-1 receptor [1] was 8.00 to 9.00; on GLP-1 receptor [2], below 6.00; on GIP receptor [3], 7.00 to 8.00; on GIP receptor [4], below 6.00. The results for the Emax on GLP-1 receptor [1] (CHO) and at GIP receptor [3] (CHO) were 95% and 94%, respectively.

Regarding `CC[C@H](C)[C@H](NC(=O)[C@H](CC(C)C)NC(=O)[C@H](Cc1c[nH]c2ccccc12)NC(=O)[C@H](CCC(N)=O)NC(=O)[C@@H](NC(=O)[C@H](Cc1ccccc1)NC(=O)[C@H](C)NC(=O)[C@H](CCCCNC(=O)COCCOCCNC(=O)COCCOCCNC(=O)CC[C@H](NC(=O)CCCCCCCCCCCCCCCCCCC(=O)O)C(=O)O)NC(=O)[C@H](CCC(N)=O)NC(=O)[C@H](C)NC(=O)[C@@H](NC(=O)[C@H](CCCCN)NC(=O)[C@H](CC(=O)O)NC(=O)[C@H](CC(C)C)NC(=O)C(C)(C)NC(=O)[C@@H](NC(=O)[C@H](CO)NC(=O)[C@H](Cc1ccc(O)cc1)NC(=O)[C@H](CC(=O)O)NC(=O)[C@H](CO)NC(=O)[C@@H](NC(=O)[C@](C)(Cc1ccccc1F)NC(=O)[C@@H](NC(=O)CNC(=O)[C@H](CCC(=O)O)NC(=O)CCNC(=O)C1(c2ccccc2)CCOCC1)[C@@H](C)O)[C@@H](C)O)[C@@H](C)CC)[C@@H](C)CC)C(C)C)C(=O)N[C@@H](C)C(=O)NCC(=O)NCC(=O)N1CCC[C@H]1C(=O)N[C@@H](CO)C(=O)N[C@@H](CO)C(=O)NCC(=O)N[C@@H](C)C(=O)N1CCC[C@H]1C(=O)N1CCC[C@H]1C(=O)N1CCC[C@H]1C(=O)N[C@@H](CO)C(N)=O` [Compound 178] ({X46-βAla}-EGT[αMePhe(2-F)]TSDYSI[Aib]LDKIAQK([AEEA-AEEA-γGlu-C20 diacid])AFVQWLIAGGPSSGAPPPS-NH2), the pEC50 was 9.00 to 10.00 on GLP-1 receptor [1] (setting [5]), below 6.00 on GLP-1 receptor [2] (setting [7]), 9.00 to 10.00 on GIP receptor [3] (setting [8]) and above 6.00 at GIP receptor [4] (setting [10]). For the same compound, the maximal response (Emax) on GLP-1 receptor [1] (setting [6]) turned out to be 98%; at GIP receptor [3] (setting [9]), 105%.

Regarding `CC[C@H](C)[C@H](NC(=O)[C@H](CC(C)C)NC(=O)[C@H](Cc1c[nH]c2ccccc12)NC(=O)[C@H](CCC(N)=O)NC(=O)[C@@H](NC(=O)[C@H](Cc1ccccc1)NC(=O)[C@H](C)NC(=O)[C@H](CCCCNC(=O)COCCOCCNC(=O)COCCOCCNC(=O)CC[C@H](NC(=O)CCCCCCCCCCCCCCCCCCC(=O)O)C(=O)O)NC(=O)[C@H](CCC(N)=O)NC(=O)[C@H](C)NC(=O)[C@@H](NC(=O)[C@H](CCCCN)NC(=O)[C@H](CC(=O)O)NC(=O)[C@H](CC(C)C)NC(=O)C(C)(C)NC(=O)[C@@H](NC(=O)[C@H](CO)NC(=O)[C@H](Cc1ccc(O)cc1)NC(=O)[C@H](CC(=O)O)NC(=O)[C@H](CO)NC(=O)[C@@H](NC(=O)[C@](C)(Cc1ccccc1F)NC(=O)[C@@H](NC(=O)CNC(=O)[C@H](CCC(=O)O)NC(=O)CCNC(=O)C1(c2cccc(Cl)c2)CCCC1)[C@@H](C)O)[C@@H](C)O)[C@@H](C)CC)[C@@H](C)CC)C(C)C)C(=O)N[C@@H](C)C(=O)NCC(=O)NCC(=O)N1CCC[C@H]1C(=O)N[C@@H](CO)C(=O)N[C@@H](CO)C(=O)NCC(=O)N[C@@H](C)C(=O)N1CCC[C@H]1C(=O)N1CCC[C@H]1C(=O)N1CCC[C@H]1C(=O)N[C@@H](CO)C(N)=O` [Compound 179] ({X62-βAla}-EGT[αMePhe(2-F)]TSDYSI[Aib]LDKIAQK([AEEA-AEEA-γGlu-C20 diacid])AFVQWLIAGGPSSGAPPPS-NH2), the pEC50 is 9.00 to 10.00 on GLP-1 receptor [1] (setting [5]), below 6.00 on GLP-1 receptor [2] (setting [7]), 9.00 to 10.00 at GIP receptor [3] (setting [8]) and above 6.00 at GIP receptor [4] (setting [10]). The results for the Emax on GLP-1 receptor [1] (setting [6]) and at GIP receptor [3] (setting [9]) were 100% and 106%, respectively.

As for `CC[C@H](C)[C@H](NC(=O)[C@H](CC(C)C)NC(=O)[C@H](Cc1c[nH]c2ccccc12)NC(=O)[C@H](CCC(N)=O)NC(=O)[C@@H](NC(=O)[C@H](Cc1ccccc1)NC(=O)[C@H](C)NC(=O)[C@H](CCCCNC(=O)COCCOCCNC(=O)COCCOCCNC(=O)CC[C@H](NC(=O)CCCCCCCCCCCCCCCCCCC(=O)O)C(=O)O)NC(=O)[C@H](CCC(N)=O)NC(=O)[C@H](C)NC(=O)[C@@H](NC(=O)[C@H](CCCCN)NC(=O)[C@H](CC(=O)O)NC(=O)[C@H](CC(C)C)NC(=O)C(C)(C)NC(=O)[C@@H](NC(=O)[C@H](CO)NC(=O)[C@H](Cc1ccc(O)cc1)NC(=O)[C@H](CC(=O)O)NC(=O)[C@H](CO)NC(=O)[C@@H](NC(=O)[C@H](Cc1ccccc1)NC(=O)[C@@H](NC(=O)CNC(=O)[C@H](CCC(=O)O)NC(=O)[C@@H](C)CNC(=O)C1(c2cccc(F)c2)CCCC1)[C@@H](C)O)[C@@H](C)O)[C@@H](C)CC)[C@@H](C)CC)C(C)C)C(=O)N[C@@H](C)C(=O)NCC(=O)NCC(=O)N1CCC[C@H]1C(=O)N[C@@H](CO)C(=O)N[C@@H](CO)C(=O)NCC(=O)N[C@@H](C)C(=O)N1CCC[C@H]1C(=O)N1CCC[C@H]1C(=O)N1CCC[C@H]1C(=O)N[C@@H](CO)C(N)=O` [Compound 180] (X18-[β2hAla(2S)]EGTFTSDYSI[Aib]LDKIAQK([AEEA-AEEA-γGlu-C20 diacid])AFVQWLIAGGPSSGAPPPS-NH2), the negative logarithm of the EC50 (pEC50) on GLP-1 receptor [1] (setting [5]) is 9.00 to 10.00; on GLP-1 receptor [2] (setting [7]), below 6.00; on GIP receptor [3] (setting [8]), 9.00 to 10.00; on GIP receptor [4] (setting [10]), above 6.00. Besides, the results for the Emax on GLP-1 receptor [1] (setting [6]) and at GIP receptor [3] (setting [9]) were 101% and 105%, respectively.

With `CC[C@H](C)[C@H](NC(=O)[C@H](CC(C)C)NC(=O)[C@H](Cc1c[nH]c2ccccc12)NC(=O)[C@H](CCC(N)=O)NC(=O)[C@@H](NC(=O)[C@H](Cc1ccccc1)NC(=O)[C@H](C)NC(=O)[C@H](CCCCNC(=O)COCCOCCNC(=O)COCCOCCNC(=O)CC[C@H](NC(=O)CCCCCCCCCCCCCCCCCCC(=O)O)C(=O)O)NC(=O)[C@H](CCC(N)=O)NC(=O)[C@H](C)NC(=O)[C@@H](NC(=O)[C@H](CCCCN)NC(=O)[C@H](CC(=O)O)NC(=O)[C@H](CC(C)C)NC(=O)C(C)(C)NC(=O)[C@@H](NC(=O)[C@H](CO)NC(=O)[C@H](Cc1ccc(O)cc1)NC(=O)[C@H](CC(=O)O)NC(=O)[C@H](CO)NC(=O)[C@@H](NC(=O)[C@H](Cc1ccccc1)NC(=O)[C@@H](NC(=O)CNC(=O)[C@H](CCC(=O)O)NC(=O)[C@@H](C)CNC(=O)C1(c2ccc(Cl)cc2)CCCC1)[C@@H](C)O)[C@@H](C)O)[C@@H](C)CC)[C@@H](C)CC)C(C)C)C(=O)N[C@@H](C)C(=O)NCC(=O)NCC(=O)N1CCC[C@H]1C(=O)N[C@@H](CO)C(=O)N[C@@H](CO)C(=O)NCC(=O)N[C@@H](C)C(=O)N1CCC[C@H]1C(=O)N1CCC[C@H]1C(=O)N1CCC[C@H]1C(=O)N[C@@H](CO)C(N)=O` [Compound 181] ({cPentCO(1-(4-ClPh))}-[β2hAla(2S)]EGTFTSDYSI[Aib]LDKIAQK([AEEA-AEEA-γGlu-C20 diacid])AFVQWLIAGGPSSGAPPPS-NH2), the pEC50 on GLP-1 receptor [1] (setting [5]) is 9.00 to 10.00; on GLP-1 receptor [2] (setting [7]), below 6.00; on GIP receptor [3] (setting [8]), 8.00 to 9.00; at GIP receptor [4] (setting [10]), above 6.00. Further, the Emax at GLP-1 receptor [1] (setting [6]) was determined as 97%; at GIP receptor [3] (setting [9]), 106%.

As a reminder, the pEC50 is the EC50 on a negative log10 scale, so that one unit is a factor of ten. Usually Emax stands for the maximal effect, on the per cent scale that the assay sets.
